# Experimental data taken from patent US11370798B2 (Vertex Pharmaceuticals Incorporated, priority 2012, dated 2022).
# Tested on: HCT116 colorectal cancer cells
# Assay: Cisplatin sensitization assay (96 h cell viability MTS);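 note: Test-compound concentration that lowers the Cisplatin IC50 by a set fold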
# Assay type: cell-based
# Conditions: compound and Cisplatin added simultaneously, Cisplatin sensitization value
# How it was run: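 Viability read by MTS (1 h at 37° C) after 96 h co-exposure at 37° C, 5% CO2. Test compound and cisplatin were dosed simultaneously in a full concentration matrix, each 2-fold serially diluted from 10 μM final; sensitization values binned in μM.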
row,Structure (SMILES),Cisplatin Sensitization Assay
1,"COCCn1cncc1-c1ccncc1NC(=O)c1c(N)nn2cc(F)cnc12 [I-C-83, 2-amino-6-fluoro-N-(4-(1-(2-methoxyethyl)-1H-imidazol-5-yl)pyridin-3-yl)pyrazolo[1,5-a]pyrimidine-3-carboxamide]",++ (Cisplatin sensitization value>0.02 μM but <0.2 μM)
2,"CN1CCN(c2c(F)cncc2NC(=O)c2c(N)nn3cc(CC#N)cnc23)CC1 [I-N-80, 2-amino-6-(cyanomethyl)-N-(5-fluoro-4-(4-methylpiperazin-1-yl)pyridin-3-yl)pyrazolo[1,5-a]pyrimidine-3-carboxamide]",++ (Cisplatin sensitization value>0.02 μM but <0.2 μM)
3,"CN1CCC[C@H]1C(=O)N1CCN(c2ccncc2NC(=O)c2c(N)nn3cc(F)cnc23)CC1 [I-N-198, (S)-2-amino-6-fluoro-N-(4-(4-(1-methylpyrrolidine-2-carbonyl)piperazin-1-yl)pyridin-3-yl)pyrazolo[1,5-a]pyrimidine-3-carboxamide]",++ (Cisplatin sensitization value>0.02 μM but <0.2 μM)
4,"Nc1nn2cc(F)cnc2c1C(=O)Nc1cnccc1N1CCCCCC1 [I-N-264, 2-amino-N-(4-(azepan-1-yl)pyridin-3-yl)-6-fluoropyrazolo[1,5-a]pyrimidine-3-carboxamide]",+ (Cisplatin sensitization value>0.2 μM but <5 μM)
5,"CN1CCN(c2cc(Cl)ncc2NC(=O)c2c(N)nn3cc(Cl)cnc23)CC1 [I-N-52, 2-amino-6-chloro-N-(6-chloro-4-(4-methylpiperazin-1-yl)pyridin-3-yl)pyrazolo[1,5-a]pyrimidine-3-carboxamide]",++ (Cisplatin sensitization value>0.02 μM but <0.2 μM)
6,"Nc1nn2cc(F)cnc2c1C(=O)Nc1cncc(F)c1N1CCC(C(=O)N2CC(F)(F)C2)CC1 [I-G-73, 2-amino-N-(4-(4-(3,3-difluoroazetidine-1-carbonyl)piperidin-1-yl)-5-fluoropyridin-3-yl)-6-fluoropyrazolo[1,5-a]pyrimidine-3-carboxamide]",+++ (Cisplatin sensitization value of <0.02 μM)
7,"Nc1nn2cc(F)cnc2c1C(=O)Nc1cncc(F)c1N1CCC(C(=O)N2CC(O)C2)CC1 [I-G-41, 2-amino-6-fluoro-N-(5-fluoro-4-(4-(3-hydroxyazetidine-1-carbonyl)piperidin-1-yl)pyridin-3-yl)pyrazolo[1,5-a]pyrimidine-3-carboxamide]",+++ (Cisplatin sensitization value of <0.02 μM)
8,"N#CCc1cnc2c(C(=O)Nc3cnccc3Oc3ccccc3)c(N)nn2c1 [I-O-25, 2-amino-6-(cyanomethyl)-N-(4-phenoxypyridin-3-yl)pyrazolo[1,5-a]pyrimidine-3-carboxamide]",+++ (Cisplatin sensitization value of <0.02 μM)
9,"CN1CCN(c2ccncc2NC(=O)c2c(N)nn3cc(F)cnc23)CC1 [I-N-3, 2-amino-6-fluoro-N-(4-(4-methylpiperazin-1-yl)pyridin-3-yl)pyrazolo[1,5-a]pyrimidine-3-carboxamide]",+++ (Cisplatin sensitization value of <0.02 μM)
10,"Nc1nn2cc(F)cnc2c1C(=O)Nc1cncc(F)c1N1CCN(C(=O)C2CNCCO2)CC1 (centres unmarked) [I-N-172, 2-amino-6-fluoro-N-(5-fluoro-4-(4-(morpholine-2-carbonyl)piperazin-1-yl)pyridin-3-yl)pyrazolo[1,5-a]pyrimidine-3-carboxamide]",+++ (Cisplatin sensitization value of <0.02 μM)
11,"Nc1nn2cc(F)cnc2c1C(=O)Nc1cncc(F)c1N1CCN(C(=O)C2CC3CCCCN3C2)CC1 (centres unmarked) [I-N-203, 2-amino-6-fluoro-N-(5-fluoro-4-(4-(octahydroindolizine-2-carbonyl)piperazin-1-yl)pyridin-3-yl)pyrazolo[1,5-a]pyrimidine-3-carboxamide]",+++ (Cisplatin sensitization value of <0.02 μM)
